Experimental data: patent US4902690A, “Pest controlling compositions” (The General Hospital Corporation, priority 1988, dated 1990)
Where “and” joins values, the source holds several entries; their conditions need not be identical. Equal values may be shown once. Read-outs that look alike come from different tables or passages of the source.

Assays:
[1] = system: octopamine-sensitive adenylate cyclase (firefly lantern octopamine receptor); experiment: Octopamine-sensitive adenylate cyclase activation, firefly light organ broken cell preparation; type: biochemical, firefly (Photinus pyralis); details: for Vmax (% OCT): maximal activation as % of that by (±)-p-octopamine, N.A. = No Activity
[2] = system: tobacco hornworms (Manducca sexta); experiment: In vivo leaf test (feeding on sprayed tomato leaves); details: for effect of adding IBMX on antifeeding / pesticidal activity of the compound: IBMX 0.1%, FIGS. 9, 10, 17, Tables 4, 7, 8, FIG. 9 at 72 hours
[3] = Table 2, clonidines, N.A. = no activity
[4] = agonist 0.3 (3 × 10^-1) gm/100 ml + PDE Inhibitor IBMX 0.1 g/100 ml
[5] = agonist 0.3 (3 × 10^-1) gm/100 ml, No PDE Inhibitor
[6] = agonist 10^-1 gm/100 ml + PDE Inhibitor IBMX 0.1 g/100 ml
[7] = agonist 10^-1 gm/100 ml, No PDE Inhibitor
[8] = agonist 10^-2 gm/100 ml + PDE Inhibitor IBMX 0.1 g/100 ml
[9] = agonist 10^-2 gm/100 ml, No PDE Inhibitor
[10] = agonist 10^-3 gm/100 ml + PDE Inhibitor IBMX 0.1 g/100 ml
[11] = agonist 10^-3 gm/100 ml, No PDE Inhibitor
[12] = Table 2, inhibitory properties at the octopamine receptor
[13] = agonist 1 gm/100 ml + PDE Inhibitor IBMX 0.1 g/100 ml
[14] = agonist 1 gm/100 ml, No PDE Inhibitor
[15] = Table 1, phenylethylamines, >1 = better than (±)-p-octopamine

CCc1cccc(CC)c1N=C1NCCN1 [NC 5]
Ka^oct /Ka^B ratio [1, 3]: 19.0 and ~20 | effect of adding IBMX on antifeeding / pesticidal activity of the compound [2]: substantial increases in the potency | % Leaf Remaining [2, 4]: 70% | % Leaf Remaining [2, 5]: 40% | % Leaf Remaining [2, 6]: 45% | % Leaf Remaining [2, 7]: 30% | % Leaf Remaining [2, 8]: 30% | % Leaf Remaining [2, 9]: 15% | % Leaf Remaining [2, 10]: 17% | % Leaf Remaining [2, 11]: 10%

Brc1cccc(Br)c1N=C1NCCN1 [NC 6]
Ka^oct /Ka^B ratio [1, 3]: 2.1

Clc1ccc(N=C2NCCN2)c(Cl)c1 [NC 8]
Ka^oct /Ka^B ratio [1, 3]: 3.7

Cc1ccc(N=C2NCCN2)c(C)c1 [NC 9]
Ka^oct /Ka^B ratio [1, 3]: 5.1

c1ccc(N=C2NCCN2)cc1 [NC 10]
Ki [1, 12]: 190 µM | antifeeding activity of the compound by itself ([2]; FIGS. 10, 13, 17, Table 8): inactive in vivo | effect of adding IBMX on antifeeding / pesticidal activity of the compound [2]: not synergized by the PDE inhibitor | % Leaf Remaining [2, 13]: 15% | % Leaf Remaining [2, 14]: 5% | % Leaf Remaining [2, 6]: 13% | % Leaf Remaining [2, 7]: 5% | % Leaf Remaining [2, 8]: 15% | % Leaf Remaining [2, 9]: 5% | % Leaf Remaining [2, 10]: 12% | % Leaf Remaining [2, 11]: 5%

Clc1cc(Cl)c(N=C2NCCN2)c(Cl)c1 [NC 11]
Ka^oct /Ka^B ratio [1, 3]: 1.9

Brc1ccc(N=C2NCCN2)cc1 [NC 12]
Ka^oct /Ka^B ratio [1, 3]: 3.0

Cc1cc(C)c(N=C2NCCN2)c(C)c1 [NC 13]
Ka^oct /Ka^B ratio [1, 3]: 4.3

Nc1cc(Cl)c(N=C2NCCN2)c(Cl)c1 [NC 14]
Ka^oct /Ka^B ratio [1, 3]: 0.7 | Ki [1, 12]: 440 µM

CN(C)c1cc(Cl)c(N=C2NCCN2)c(Cl)c1 [NC 15]
Ka^oct /Ka^B ratio [1, 3]: 1.9

CN(CCCl)c1cc(Cl)c(N=C2NCCN2)c(Cl)c1 [NC 16]
Ki [1]: 10 µM | Ka^oct /Ka^B ratio [1, 3]: 4.8

CNCCc1ccc(O)c(O)c1 [Nmethyldopamine]
Ka^oct /Ka^B ratio [1, 15]: 0.19 | Vmax (% OCT) ([1]; Table 1, phenylethylamines): 11 ± 1 % OCT

Clc1cccc(Cl)c1N=C1NCCN1 [clonidine]
Ka^oct /Ka^B ratio [1]: 0.95 | Ki [1]: 20 µM | effect of adding IBMX on antifeeding / pesticidal activity of the compound [2]: substantial increases in the potency | % Leaf Remaining [2, 13]: 63% | % Leaf Remaining [2, 14]: 65% | % Leaf Remaining [2, 6]: 55% | % Leaf Remaining [2, 7]: 20% | % Leaf Remaining [2, 8]: 55% | % Leaf Remaining [2, 9]: 5%

NCCc1ccc(O)c(O)c1 [dopamine]
Ka^oct /Ka^B ratio [1, 15]: 0.26 | Vmax (% OCT) ([1]; Table 1, phenylethylamines): 4 ± 1 % OCT

NCC(O)c1ccc(O)c(Cl)c1 (stereo not drawn) [m-chloro-octopamine]
Ka^oct /Ka^B ratio [1, 15]: 0.28 | Vmax (% OCT) ([1]; Table 1, phenylethylamines): 77 ± 1 % OCT

Nc1ncnc2c1nc(Sc1ccc(Cl)cc1)n2[C@@H]1O[C@@H]2COP(=O)(O)O[C@H]2[C@H]1O [p-Cl-phenylthio cyclic AMP, 8-p-chlorophenylthio-cyclic AMP]
antifeeding activity in the absence of IBMX ([2]; concentration of 1%, FIGS. 18, 19): some antifeeding activity

NCC(O)c1ccc(F)cc1 (stereo not drawn) [p-fluoro-phenylethanolamine]
% Leaf Remaining [2, 4]: 95% | % Leaf Remaining [2, 5]: 25% | % Leaf Remaining [2, 6]: 98% | % Leaf Remaining [2, 8]: 80% | % Leaf Remaining [2, 10]: 50% | % Leaf Remaining [2, 11]: < 5%

COc1ccc(CCN)cc1 [p-methoxphenylethylamine]
Ka^oct /Ka^B ratio [1, 15]: 0.10 | Vmax (% OCT) ([1]; Table 1, phenylethylamines): 6 ± 3 % OCT

NCCc1ccc(O)cc1 [tyramine]
Ka^oct /Ka^B ratio [1, 15]: 0.15 | Vmax (% OCT) ([1]; Table 1, phenylethylamines): 57 ± 1 % OCT

NCCc1ccccc1 [β-phenylethylamine]
Ka^oct /Ka^B ratio [1, 15]: 0.03 | Vmax (% OCT) ([1]; Table 1, phenylethylamines): 13 ± 2 % OCT
